{"source": "ChEMBL document CHEMBL1150471", "about": "“Tritylated oncolytics as prodrugs” (Bioorg Med Chem Lett, 1995)", "key": {"[1]": {"assay": "Half life at pH 5.4", "format": "ADME", "settings": "buffer"}, "Homo sapiens [2]": {"tested_on": "Homo sapiens", "assay": "In vivo tumor inhibition against human colon (HC-1) xenograft after i.p. administration to C3H nude mice on days 7", "format": "functional", "set-up": "concentration or dose not given beside the values"}, "Homo sapiens [3]": {"tested_on": "Homo sapiens", "assay": "In vivo tumor inhibition against human colon (HC-1) xenograft after i.p. administration to C3H nude mice on day 1", "format": "functional", "set-up": "concentration or dose not given beside the values"}, "Homo sapiens [4]": {"tested_on": "Homo sapiens", "assay": "In vivo tumor inhibition against human colon (HC-1) xenograft after i.p. administration to C3H nude mice on days 10", "format": "functional", "set-up": "concentration or dose not given beside the values"}, "[5]": {"assay": "Half life at pH 7.4", "format": "ADME", "settings": "buffer"}, "Homo sapiens [6]": {"tested_on": "Homo sapiens", "assay": "In vivo tumor inhibition against human colon (HC-1) xenograft after i.p. administration to C3H nude mice on days 4", "format": "functional", "set-up": "concentration or dose not given beside the values"}, "[7]": {"assay": "Half life at pH 6.4", "format": "ADME", "settings": "buffer"}, "CCRF-CEM": {"tested_on": "CCRF-CEM", "assay": "In vitro cytotoxicity against human leukemia cell line CCRF-CEM", "format": "functional, cell-based"}, "Homo sapiens [8]": {"tested_on": "Homo sapiens", "assay": "In vivo inhibition against human colon (HC-1) xenograft at a dose of 20 mg/kg", "format": "functional"}, "Homo sapiens [9]": {"tested_on": "Homo sapiens", "assay": "In vivo inhibition against human colon (HC-1) xenograft at a dose of 50 mg/kg", "format": "functional"}, "Homo sapiens [10]": {"tested_on": "Homo sapiens", "assay": "In vivo inhibition against human colon (HC-1) xenograft at a dose of 37.5 mg/kg", "format": "functional"}, "Homo sapiens [11]": {"tested_on": "Homo sapiens", "assay": "In vivo inhibition against human colon (HC-1) xenograft at a dose of 75 mg/kg", "format": "functional"}, "[12]": {"assay": "Half life at pH 5.4; no dissociation up to day 33", "format": "ADME", "settings": "buffer"}, "[13]": {"assay": "Half life at pH 7.4; no dissociation up to day 33", "format": "ADME", "settings": "buffer"}, "[14]": {"assay": "Half life at pH 6.4; no dissociation up to day 33", "format": "ADME", "settings": "buffer"}, "Homo sapiens [15]": {"tested_on": "Homo sapiens", "assay": "Effective dose for the dose dependent inhibition of tumor growth against human colon (HC-1) xenograft in mice; Inactive", "format": "functional, organism-based"}, "Homo sapiens [16]": {"tested_on": "Homo sapiens", "assay": "Effective dose for the dose dependent inhibition of tumor growth against human colon (HC-1) xenograft in mice", "format": "functional"}}, "note": "Active and inactive are the calls of the source. No cut-off for these calls is given here.", "data": [{"smiles": "COc1ccc(C(Nc2nc(N)nc3c2ncn3[C@@H]2O[C@H](CO)[C@@H](O)C2(F)F)(c2ccccc2)c2ccc(C(=O)NC(C)C)cc2)cc1", "note": "(stereo not given in full)", "values": [{"measurement": "half-life", "setting": "[1]", "result": 16.7, "unit": "h"}, {"measurement": "Inhibition", "setting": "Homo sapiens [2]", "result": ">95", "unit": "%"}, {"measurement": "Inhibition", "setting": "Homo sapiens [3]", "result": ">95", "unit": "%"}, {"measurement": "Inhibition", "setting": "Homo sapiens [4]", "result": ">95", "unit": "%"}, {"measurement": "half-life", "setting": "[5]", "result": 800, "unit": "h"}, {"measurement": "Inhibition", "setting": "Homo sapiens [6]", "result": ">95", "unit": "%"}, {"measurement": "half-life", "setting": "[7]", "result": 547, "unit": "h"}, {"measurement": "IC50", "setting": "CCRF-CEM", "result": 0.1, "unit": "µg/mL"}]}, {"smiles": "COc1ccc(C(Nc2nc(N)nc3c2ncn3[C@@H]2O[C@H](CO)[C@@H](O)C2(F)F)(c2ccc(C)cc2)c2ccc(C(=O)NC(C)C)cc2)cc1", "note": "(stereo not given in full)", "values": [{"measurement": "Inhibition", "setting": "Homo sapiens [2]", "result": ">95", "unit": "%"}, {"measurement": "Inhibition", "setting": "Homo sapiens [3]", "result": ">95", "unit": "%"}, {"measurement": "Inhibition", "setting": "Homo sapiens [4]", "result": ">95", "unit": "%"}, {"measurement": "Inhibition", "setting": "Homo sapiens [6]", "result": ">95", "unit": "%"}, {"measurement": "IC50", "setting": "CCRF-CEM", "result": 0.1, "unit": "µg/mL"}]}, {"smiles": "Nc1nc(N)c2ncn([C@@H]3O[C@H](CO)[C@@H](O)C3(F)F)c2n1", "values": [{"measurement": "inhibition in vivo at 20 mg/kg", "setting": "Homo sapiens [8]", "result": "> 95", "unit": "%"}, {"measurement": "inhibition in vivo at 50 mg/kg", "setting": "Homo sapiens [9]", "result": "> 95", "unit": "%"}, {"measurement": "IC50", "setting": "CCRF-CEM", "result": 0.024, "unit": "µg/mL"}, {"measurement": "inhibition in vivo at 37.5 mg/kg", "setting": "Homo sapiens [10]", "result": "> 95", "unit": "%"}, {"measurement": "inhibition in vivo at 75 mg/kg", "setting": "Homo sapiens [11]", "result": "> 95", "unit": "%"}]}, {"smiles": "COc1ccc(C(Nc2nc(N)nc3c2ncn3[C@@H]2O[C@H](CO)[C@@H](O)C2(F)F)(c2ccc(OC)cc2)c2cccc(C(=O)NC(C)C)c2)cc1", "values": [{"measurement": "half-life", "setting": "[1]", "result": 2.35, "unit": "h"}, {"measurement": "half-life", "setting": "[5]", "result": 133, "unit": "h"}, {"measurement": "half-life", "setting": "[7]", "result": 23.3, "unit": "h"}, {"measurement": "IC50", "setting": "CCRF-CEM", "result": 0.084, "unit": "µg/mL"}]}, {"smiles": "CC(C)NC(=O)c1ccc(C(Nc2nc(N)nc3c2ncn3[C@@H]2O[C@H](CO)[C@@H](O)C2(F)F)(c2ccccc2)c2ccccc2)cc1", "values": [{"measurement": "T1/2", "setting": "[12]", "result": "no dissociation up to day 33"}, {"measurement": "T1/2", "setting": "[13]", "result": "no dissociation up to day 33"}, {"measurement": "Inhibition", "setting": "Homo sapiens [2]", "result": ">95", "unit": "%"}, {"measurement": "Inhibition", "setting": "Homo sapiens [3]", "result": ">95", "unit": "%"}, {"measurement": "Inhibition", "setting": "Homo sapiens [4]", "result": ">95", "unit": "%"}, {"measurement": "T1/2", "setting": "[14]", "result": "no dissociation up to day 33"}, {"measurement": "Inhibition", "setting": "Homo sapiens [6]", "result": ">95", "unit": "%"}, {"measurement": "ED50", "setting": "Homo sapiens [15]", "result": "inactive"}, {"measurement": "IC50", "setting": "CCRF-CEM", "result": 1.7, "unit": "µg/mL"}]}, {"smiles": "COc1ccc(C(Nc2nc(N)nc3c2ncn3[C@@H]2O[C@H](CO)[C@@H](O)C2(F)F)(c2ccc(OC)cc2)c2ccc(C(=O)NC(C)C)cc2)cc1", "values": [{"measurement": "half-life", "setting": "[1]", "result": 3.71, "unit": "h"}, {"measurement": "Inhibition", "setting": "Homo sapiens [2]", "result": ">95", "unit": "%"}, {"measurement": "Inhibition", "setting": "Homo sapiens [3]", "result": ">95", "unit": "%"}, {"measurement": "Inhibition", "setting": "Homo sapiens [4]", "result": ">95", "unit": "%"}, {"measurement": "half-life", "setting": "[5]", "result": 146, "unit": "h"}, {"measurement": "Inhibition", "setting": "Homo sapiens [6]", "result": ">95", "unit": "%"}, {"measurement": "half-life", "setting": "[7]", "result": 14.8, "unit": "h"}, {"measurement": "IC50", "setting": "CCRF-CEM", "result": 0.078, "unit": "µg/mL"}]}, {"smiles": "Cc1ccc(C(Nc2nc(N)nc3c2ncn3[C@@H]2O[C@H](CO)[C@@H](O)C2(F)F)(c2ccccc2)c2ccc(C(=O)NC(C)C)cc2)cc1", "note": "(stereo not given in full)", "values": [{"measurement": "ED50", "setting": "Homo sapiens [16]", "result": 30, "unit": "mg/kg"}, {"measurement": "Inhibition", "setting": "Homo sapiens [2]", "result": ">95", "unit": "%"}, {"measurement": "Inhibition", "setting": "Homo sapiens [3]", "result": ">95", "unit": "%"}, {"measurement": "Inhibition", "setting": "Homo sapiens [4]", "result": ">95", "unit": "%"}, {"measurement": "Inhibition", "setting": "Homo sapiens [6]", "result": ">95", "unit": "%"}, {"measurement": "IC50", "setting": "CCRF-CEM", "result": 0.8, "unit": "µg/mL"}]}]}
